Test results as given in ChEMBL document CHEMBL5252610, “Synthesis, Characterization, and Bioactivity of the Lichen Pigments Pulvinamide, Rhizocarpic Acid, and Epanorin and Congeners” (J Nat Prod, 2023).
Values after ≈ are worked out from the molar mass of the structure shown.

Experiments:
[1] = Anticancer activity against mouse NS-1 cells assessed as reduction in cell viability incubated for 96 hrs by resazurin based assay; type: functional
[2] = Cytotoxicity against human NFF cells assessed as reduction in cell viability incubated for 96 hrs by resazurin based assay; type: toxicity; settings: read-out: MIC
Bacillus subtilis = assay: Antibacterial activity against Bacillus subtilis ATCC 6633 assessed as bacterial growth inhibition incubated for 48 hrs by resazurin microtiter assay; type: functional
Staphylococcus aureus = assay: Antibacterial activity against Staphylococcus aureus ATCC 25923 assessed as bacterial growth inhibition incubated for 48 hrs by resazurin microtiter assay; type: functional
Candida albicans = assay: Antifungal activity against Candida albicans ATCC 10231 assessed as bacterial growth inhibition incubated for 48 hrs by bromocresol green based broth dilution assay; type: functional
Saccharomyces cerevisiae = assay: Antifungal activity against Saccharomyces cerevisiae ATCC 9763 assessed as bacterial growth inhibition incubated for 48 hrs by bromocresol green based broth dilution assay; type: functional
Giardia intestinalis = assay: Antiparasitic activity against Giardia intestinalis 713 assessed as bacterial growth inhibition incubated for 96 hrs by microtiter assay; type: functional; settings: Giardia duodenalis
Spodoptera littoralis [3] = assay: Insecticidal activity against Spodoptera littoralis neonate larvae assessed as reduction in weight gain of larvae; type: functional
Spodoptera littoralis [4] = assay: Insecticidal activity against Spodoptera littoralis assessed as reduction in number of pupae in adulthood (Rvb=90%); type: functional; design: scale not given: the % may be the effect or the level left

Row | SMILES | MIC [1] [µg/mL] | MIC (Bacillus subtilis) [µg/mL] | MIC (Staphylococcus aureus) [µg/mL] | MIC (Candida albicans) [µg/mL] | MIC (Saccharomyces cerevisiae) [µg/mL] | MIC (Giardia intestinalis) [µg/mL] | MCC at 96 h [2] [µg/mL] | ED50 (Spodoptera littoralis [3]) [µmol/g] | Activity (Spodoptera littoralis [4]) [%]
1 | CSC[S+]([O-])C[C@H](CO)NC(=O)/C=C/c1c(C)[nH]c(=O)[nH]c1=O (stereo partly drawn) | 0.6 (≈ 1.66 µM) |  |  |  |  |  | 0.6 |  | 
2 | O=C1O/C(=C(/C(=O)N[C@@H](Cc2ccccc2)C(=O)O)c2ccccc2)C(O)=C1c1ccccc1 | > 100 | 100 (≈ 220 µM) | > 100 | > 200 | > 200 | > 100 | > 100 |  | 
3 | COC(=O)[C@H](Cc1ccccc1)NC(=O)/C(=C1/OC(=O)C(c2ccccc2)=C1O)c1ccccc1 | 3.1 (≈ 6.6 µM) | 50 (≈ 106 µM) | > 100 | > 200 | > 200 | 100 (≈ 213 µM) | > 100 | 71 | 25
4 | COC(=O)[C@@H](Cc1ccccc1)NC(=O)/C(=C1/OC(=O)C(c2ccccc2)=C1O)c1ccccc1 | 50 (≈ 106 µM) | 50 (≈ 106 µM) | 50 (≈ 106 µM) | > 200 | > 200 | 25 (≈ 53.2 µM) | > 100 |  | 
5 | CN(CC[C@H](N)CC(=O)N[C@H]1C=C[C@H](n2ccc(N)nc2=O)O[C@@H]1C(=O)O)C(=N)N.Cl |  |  |  | > 200 | 3.1 |  |  |  | 
6 | Cc1ncc([N+](=O)[O-])n1CCO [METRONIDAZOLE] |  |  |  |  |  | 0.3 (≈ 1.75 µM) |  |  | 
7 | CN(C)[C@@H]1C(O)=C(C(N)=O)C(=O)[C@@]2(O)C(O)=C3C(=O)c4c(O)cccc4[C@@](C)(O)[C@H]3C[C@@H]12 [TETRACYCLINE] |  | 6.3 (≈ 14.2 µM) | 12.5 (≈ 28.1 µM) |  |  |  |  |  | 

Second part, led by results:

Row | MIC [1] [µg/mL] | MIC (Bacillus subtilis) [µg/mL] | MIC (Staphylococcus aureus) [µg/mL] | MIC (Candida albicans) [µg/mL] | MIC (Saccharomyces cerevisiae) [µg/mL] | MIC (Giardia intestinalis) [µg/mL] | SMILES | MCC at 96 h [2] [µg/mL] | ED50 (Spodoptera littoralis [3]) [µmol/g] | Activity (Spodoptera littoralis [4]) [%]
8 | 25 (≈ 57.4 µM) | > 100 | > 100 | > 200 | > 200 | 50 (≈ 115 µM) | COC(=O)[C@H](CC(C)C)NC(=O)/C(=C1/OC(=O)C(c2ccccc2)=C1O)c1ccccc1 | > 100 |  | 
9 |  | 50 (≈ 163 µM) | > 100 | 200 (≈ 651 µM) | 100 (≈ 325 µM) |  | NC(=O)/C(=C1/OC(=O)C(c2ccccc2)=C1O)c1ccccc1 |  |  | 
10 | > 100 | > 100 | > 100 | > 200 | > 200 | > 100 | CC(C)C[C@H](NC(=O)/C(=C1/OC(=O)C(c2ccccc2)=C1O)c1ccccc1)C(=O)O | > 100 |  | 
11 | 50 (≈ 115 µM) | 50 (≈ 115 µM) | 100 (≈ 230 µM) | > 200 | > 200 | 25 (≈ 57.4 µM) | COC(=O)[C@@H](CC(C)C)NC(=O)/C(=C1/OC(=O)C(c2ccccc2)=C1O)c1ccccc1 | > 100 |  | 
12 |  | > 100 | > 100 | > 100 | > 100 |  | O=C1O/C(=C(/C(=O)O)c2ccccc2)C(O)=C1c1ccccc1 [PULVIC ACID] |  |  | 
13 |  | > 100 | > 100 | > 100 | > 100 |  | O=C1OC2=C(c3ccccc3)C(=O)OC2=C1c1ccccc1 [PULVINIC DILACTONE] |  |  | 
